Assay results published in PubChem BioAssay AID1845198 (Molecular Pharmacology Branch, DTP, NCI, 2023).

Test system: 425362-245-T-J1 tumor spheroids, viability % test/control
Assay: Anticancer human tumor 425362-245-T-J1 patient-derived melanoma cell line growth inhibition
Conditions: spheroids with HUVEC and MSC; for IC50: curve of first compound; for viability, T/C: stronger effect = lower value
Method in brief: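 Complex tumor spheroids combined malignant cells with endothelial cells and mesenchymal stem cells. DNA-damaging drugs and DNA repair inhibitors were tested alone and in combination, at half-log dilutions down from clinical Cmax (top 10 microM if Cmax unknown), 0.25% DMSO final.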

[1] = second compound 1 µM, first compound 0.0316 µM
[2] = second compound 1 µM, first compound 0.1 µM
[3] = second compound 1 µM, first compound 0.316 µM
[4] = second compound 1 µM, first compound 1 µM
[5] = second compound 1 µM, first compound 3.16 µM
[6] = second compound 1 µM, first compound 10 µM
[7] = second compound 3.16 µM, first compound 0.0316 µM
[8] = second compound 3.16 µM, first compound 0.1 µM
[9] = second compound 3.16 µM, first compound 0.316 µM
[10] = second compound 3.16 µM, first compound 1 µM
[11] = second compound 3.16 µM, first compound 3.16 µM
[12] = second compound 3.16 µM, first compound 10 µM
[13] = second compound 10 µM, first compound 0.0316 µM
[14] = second compound 10 µM, first compound 0.1 µM
[15] = second compound 10 µM, first compound 0.316 µM
[16] = second compound 10 µM, first compound 1 µM
[17] = second compound 10 µM, first compound 3.16 µM
[18] = second compound 10 µM, first compound 10 µM
[19] = second compound 31.6 µM, first compound 0.0316 µM
[20] = second compound 31.6 µM, first compound 0.1 µM
[21] = second compound 31.6 µM, first compound 0.316 µM
[22] = second compound 31.6 µM, first compound 1 µM
[23] = second compound 31.6 µM, first compound 3.16 µM
[24] = second compound 31.6 µM, first compound 10 µM
[25] = second compound 100 µM, first compound 0.0316 µM
[26] = second compound 100 µM, first compound 0.1 µM
[27] = second compound 100 µM, first compound 0.316 µM
[28] = second compound 100 µM, first compound 1 µM
[29] = second compound 100 µM, first compound 3.16 µM
[30] = second compound 100 µM, first compound 10 µM
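Further: spheroids exposed to agents for 7 days.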

## Cc1cc(C)c(CNC(=O)c2cc(-c3ccc(CN4CCOCC4)cc3)cc3c2cnn3C2CCCC2)c(=O)[nH]1 + Cn1nnc2c(C(N)=O)ncn2c1=O
Second compound 1 µM
  IC50: 2970 nM
Second compound 3.16 µM
  IC50: 3220 nM
Second compound 10 µM
  IC50: 4590 nM
Second compound 31.6 µM
  IC50: 3070 nM
Second compound 100 µM
  IC50: 1470 nM
[1]
  viability, T/C: 90.2%
[2]
  viability, T/C: 100%
[3]
  viability, T/C: 90.8%
[4]
  viability, T/C: 80.7%
[5]
  viability, T/C: 48.4%
[6]
  viability, T/C: 11.2%
[7]
  viability, T/C: 110%
[8]
  viability, T/C: 107%
[9]
  viability, T/C: 105%
[10]
  viability, T/C: 91.7%
[11]
  viability, T/C: 50.5%
[12]
  viability, T/C: 14.6%
[13]
  viability, T/C: 102%
[14]
  viability, T/C: 106%
[15]
  viability, T/C: 114%
[16]
  viability, T/C: 85.4%
[17]
  viability, T/C: 69.6%
[18]
  viability, T/C: 13.1%
[19]
  viability, T/C: 104%
[20]
  viability, T/C: 116%
[21]
  viability, T/C: 100%
[22]
  viability, T/C: 85.4%
[23]
  viability, T/C: 49.3%
[24]
  viability, T/C: 10.9%
[25]
  viability, T/C: 94.6%
[26]
  viability, T/C: 91.4%
[27]
  viability, T/C: 87.4%
[28]
  viability, T/C: 59.6%
[29]
  viability, T/C: 28.6%
[30]
  viability, T/C: 6.56%

## Cc1sc2c(c1C)C(c1ccc(Cl)cc1)=NC(CC(=O)Nc1ccc(O)cc1)c1nnc(C)n1-2 (stereo not given) + Cn1nnc2c(C(N)=O)ncn2c1=O
Second compound 1 µM
  IC50: 82.7 nM
Second compound 3.16 µM
  IC50: 86.4 nM
Second compound 10 µM
  IC50: 108 nM
Second compound 31.6 µM
  IC50: 108 nM
Second compound 100 µM
  IC50: 85.7 nM
Second compound 1 µM, first compound 0.00949 µM
  viability, T/C: 85.8%
Second compound 1 µM, first compound 0.03 µM
  viability, T/C: 86.8%
Second compound 1 µM, first compound 0.0949 µM
  viability, T/C: 44.5%
Second compound 1 µM, first compound 0.3 µM
  viability, T/C: 11.4%
Second compound 1 µM, first compound 0.949 µM
  viability, T/C: 4.19%
Second compound 1 µM, first compound 3 µM
  viability, T/C: 4.22%
Second compound 3.16 µM, first compound 0.00949 µM
  viability, T/C: 110%
Second compound 3.16 µM, first compound 0.03 µM
  viability, T/C: 86.2%
Second compound 3.16 µM, first compound 0.0949 µM
  viability, T/C: 47.6%
Second compound 3.16 µM, first compound 0.3 µM
  viability, T/C: 15.7%
Second compound 3.16 µM, first compound 0.949 µM
  viability, T/C: 3.45%
Second compound 3.16 µM, first compound 3 µM
  viability, T/C: 2.88%
Second compound 10 µM, first compound 0.00949 µM
  viability, T/C: 106%
Second compound 10 µM, first compound 0.03 µM
  viability, T/C: 90%
Second compound 10 µM, first compound 0.0949 µM
  viability, T/C: 57.5%
Second compound 10 µM, first compound 0.3 µM
  viability, T/C: 8.87%
Second compound 10 µM, first compound 0.949 µM
  viability, T/C: 3.57%
Second compound 10 µM, first compound 3 µM
  viability, T/C: 2.37%
Second compound 31.6 µM, first compound 0.00949 µM
  viability, T/C: 103%
Second compound 31.6 µM, first compound 0.03 µM
  viability, T/C: 92%
Second compound 31.6 µM, first compound 0.0949 µM
  viability, T/C: 54.1%
Second compound 31.6 µM, first compound 0.3 µM
  viability, T/C: 16.9%
Second compound 31.6 µM, first compound 0.949 µM
  viability, T/C: 4%
Second compound 31.6 µM, first compound 3 µM
  viability, T/C: 2.29%
Second compound 100 µM, first compound 0.00949 µM
  viability, T/C: 84.8%
Second compound 100 µM, first compound 0.03 µM
  viability, T/C: 90.5%
Second compound 100 µM, first compound 0.0949 µM
  viability, T/C: 45.6%
Second compound 100 µM, first compound 0.3 µM
  viability, T/C: 10.6%
Second compound 100 µM, first compound 0.949 µM
  viability, T/C: 3.44%
Second compound 100 µM, first compound 3 µM
  viability, T/C: 1.57%

## [2H]c1nc(C)nc([2H])c1-c1cc(NC[C@@H](C)c2cccc3c(C(=O)NC)ccnc23)ncn1 + Cn1nnc2c(C(N)=O)ncn2c1=O
Second compound 1 µM
  IC50: > 10000 nM
Second compound 3.16 µM
  IC50: > 10000 nM
Second compound 10 µM
  IC50: > 10000 nM
Second compound 31.6 µM
  IC50: > 10000 nM
Second compound 100 µM
  IC50: > 10000 nM
[1]
  viability, T/C: 88.2%
[2]
  viability, T/C: 96.8%
[3]
  viability, T/C: 95.9%
[4]
  viability, T/C: 71.2%
[5]
  viability, T/C: 93.4%
[6]
  viability, T/C: 76.9%
[7]
  viability, T/C: 108%
[8]
  viability, T/C: 91.8%
[9]
  viability, T/C: 102%
[10]
  viability, T/C: 105%
[11]
  viability, T/C: 109%
[12]
  viability, T/C: 94.4%
[13]
  viability, T/C: 99.2%
[14]
  viability, T/C: 114%
[15]
  viability, T/C: 110%
[16]
  viability, T/C: 107%
[17]
  viability, T/C: 112%
[18]
  viability, T/C: 84.2%
[19]
  viability, T/C: 105%
[20]
  viability, T/C: 113%
[21]
  viability, T/C: 104%
[22]
  viability, T/C: 110%
[23]
  viability, T/C: 101%
[24]
  viability, T/C: 85.5%
[25]
  viability, T/C: 82.7%
[26]
  viability, T/C: 91.3%
[27]
  viability, T/C: 87.4%
[28]
  viability, T/C: 86.5%
[29]
  viability, T/C: 88.2%
[30]
  viability, T/C: 83.5%
